Source: patent US7713994B2 (Wyeth LLC, priority 2005, dated 2010)
Where two headings read alike, the source gives them in different places.

Experiments:
cyclin B/CDK1 enzyme = target: T1, cyclin B/CDK1 enzyme (Homo sapiens, UniProt P06493); test: CDK1 ELISA kinase assay (phospho-Rb ser 795 detection); assay type: biochemical
T1 construct: purchased New England BioLabs; host or cells: Sf9 insect cells, recombinant baculovirus
In short: (§1)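 GST-Rb C-terminal fragment coated on wells; kinase reaction: 200 μM ATP, 0.5 mg/ml BSA, HEPES pH 7.5, 10 mM MgCl2, baculovirus/Sf9 cyclin-CDK, 30° C, 1 h. Readout anti-phospho-Rb Ser795, HRP, TMB, A450. Test compound 10 ug/ml final.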

BT474 = test: Cytotoxicity assay (SRB), BT474; assay type: cell-based
In short: (§2)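 Cells grown in RPMI 1640 with 5% FBS were treated with compound for three days (HCT-116, LoVo, MCF-7) or six days (BT474). Viable cell mass was quantified by sulforhodamine B staining of TCA-fixed protein and read at 540 nm.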

LoVo = test: Cytotoxicity assay (SRB), LoVo; assay type: cell-based; settings: Homo sapiens, LoVo, 72 h, LoVo cells, SRB, read-out: In Vitro Cellular Activity IC50 LOVO
In short: as §2

Cyclin D1/CDK6 = target: T2, Cyclin D1/CDK6 (Homo sapiens, UniProt Q00534); test: Cyclin D1/CDK6 Elisa; assay type: biochemical; settings: 200 μM ATP
T2 construct: made in house; host or cells: Sf9 insect cells, recombinant baculovirus
Description: Cyclin D1/CDK6 was expressed in insect cells (Sf9) infected with recombinant baculovirus and partially purified using ammonium sulfate fractionation. Test compounds were diluted in 20% DMSO/20 mM HEPES, pH 7.5 and serial dilutions were prepared (5 concentrations; 0.005-50 µM). High-binding ELISA microtiter plates (Costar) were coated with the kinase substrate (glutathione-S-transferase (GST) fusion of C-terminal fragment of the retinoblastoma susceptibility gene product (Rb). Non-specific binding sites were blocked with Superblock in Tris-buffered saline (TBS; Pierce). Kinase reactions contained the test inhibitor, 200 μM ATP, 0.5 mg/ml bovine serum albumin (BSA; Sigma), and 0.1 μl cyclin D1/cdk 6. Reaction volumes were adjusted to 30 μl with kinase assay buffer (50 mM HEPES, pH 7.5, 10 mM MgCl2, 5% glycerol, 10 mM 2-mercaptoethanol), and plates were incubated at 30° C. for 1 hour. Reactions were terminated by aspiration, and non-specific sites were blocked with blocking buffer (TBS containing 0.1% Tween-20 and 5% nonfat dry milk). Phoshporylation of the substrate was detected using phospho-Rb specific antibodies (ser-795) (Cell Signalling Technologies) and anti-rabbit IgG/horseradish peroxidase conjugates (Amersham Life Science) using TMB as substrate. Colourimetric reactions were stopped with 2N sulphuric acid and the absorbance was measured at 450 nm (Molecular Devices). IC50 values were determined from inhibition plots.

MCF-7 = test: Cytotoxicity assay (SRB), MCF-7; assay type: cell-based; settings: Homo sapiens, MCF7, 72 h, MCF-7 cells, SRB, read-out: In Vitro Cellular Activity IC50 MCF-7
In short: as §2

HCT-116 = test: Cytotoxicity assay (SRB), HCT-116; assay type: cell-based; settings: Homo sapiens, HCT-116, 72 h, HCT116 cells, SRB, read-out: In Vitro Cellular Activity IC50 HCT116
In short: as §2

cyclin E/CDK2 enzyme = target: T3, cyclin E/CDK2 enzyme (Homo sapiens, UniProt P24941); test: CDK2 ELISA kinase assay (phospho-Rb ser 795 detection); assay type: biochemical
T3 construct: made in house; host or cells: Sf9 insect cells, recombinant baculovirus
In short: as §1

cyclin D1/cdk 4 enzyme = target: T4, cyclin D1/cdk 4 enzyme (Homo sapiens, UniProt P11802); test: CDK4 ELISA kinase assay (phospho-Rb ser 795 detection); assay type: biochemical
T4 construct: made in house; host or cells: Sf9 insect cells, recombinant baculovirus
In short: as §1

SK-UT-1B = test: Cytotoxicity assay (SRB), SK-UT-1B; assay type: cell-based; settings: Homo sapiens, Skut1B; SK-UT-1B cells; read-out: In Vitro Cellular Activity IC50 SK-UT-1B
SK-Br-3 = test: Cytotoxicity assay (SRB), SK-Br-3; assay type: cell-based; settings: Homo sapiens; SK-Br-3 cells; read-out: In Vitro Cellular Activity IC50 SK-Br-3
[1] = In Vitro Enzyme Assays, read-out: CDK1 IC50
[2] = Homo sapiens, BT-474, 144 h, BT474 cells, SRB, 6 days; read-out: In Vitro Cellular Activity IC50 BT474
[3] = In Vitro Enzyme Assays, read-out: CDK2 IC50
[4] = In Vitro Enzyme Assays, 200 μM ATP, read-out: CDK4 IC50
[5] = In Vitro Enzyme Assay, cyclin B/CDK1, read-out: CDK1 IC50
[6] = Homo sapiens, BT-474, 144 h, BT474 cells, 6 days, SRB; read-out: In Vitro Cellular Activity IC50 BT474
[7] = In Vitro Enzyme Assay, cyclin E/CDK2, read-out: CDK2 IC50
[8] = In Vitro Enzyme Assay, cyclin D1/cdk 4, read-out: CDK4 IC50

T4 sequence (P11802 whole entry, species assumed): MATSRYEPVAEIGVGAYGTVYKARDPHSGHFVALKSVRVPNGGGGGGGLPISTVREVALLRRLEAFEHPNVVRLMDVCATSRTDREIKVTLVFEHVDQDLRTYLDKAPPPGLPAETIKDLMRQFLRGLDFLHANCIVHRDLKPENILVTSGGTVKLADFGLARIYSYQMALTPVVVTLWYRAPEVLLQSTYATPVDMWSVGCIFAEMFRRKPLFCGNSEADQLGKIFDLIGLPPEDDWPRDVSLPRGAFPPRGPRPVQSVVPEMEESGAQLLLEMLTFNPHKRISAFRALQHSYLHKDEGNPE
T4 sequence (P24385 whole entry partner, species assumed): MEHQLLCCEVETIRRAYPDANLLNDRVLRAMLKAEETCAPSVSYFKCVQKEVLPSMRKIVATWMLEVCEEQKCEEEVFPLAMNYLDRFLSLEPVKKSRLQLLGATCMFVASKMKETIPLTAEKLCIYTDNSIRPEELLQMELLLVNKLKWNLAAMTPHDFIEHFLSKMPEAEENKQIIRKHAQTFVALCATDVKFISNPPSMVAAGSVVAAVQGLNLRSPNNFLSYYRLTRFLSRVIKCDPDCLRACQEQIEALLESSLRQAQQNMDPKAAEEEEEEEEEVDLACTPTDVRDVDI
T2 sequence (Q00534 whole entry, species assumed): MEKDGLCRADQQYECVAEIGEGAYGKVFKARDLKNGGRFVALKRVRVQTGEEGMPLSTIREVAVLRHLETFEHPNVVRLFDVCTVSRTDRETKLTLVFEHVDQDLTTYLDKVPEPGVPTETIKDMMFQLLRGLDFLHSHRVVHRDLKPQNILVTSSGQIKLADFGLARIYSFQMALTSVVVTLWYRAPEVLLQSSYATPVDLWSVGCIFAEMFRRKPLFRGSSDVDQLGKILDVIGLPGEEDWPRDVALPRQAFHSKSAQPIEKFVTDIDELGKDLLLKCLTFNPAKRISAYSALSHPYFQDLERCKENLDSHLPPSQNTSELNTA
T2 sequence (P24385 whole entry partner, species assumed): as the sequence (P24385 whole entry partner, species assumed) above
T1 sequence (P06493 whole entry): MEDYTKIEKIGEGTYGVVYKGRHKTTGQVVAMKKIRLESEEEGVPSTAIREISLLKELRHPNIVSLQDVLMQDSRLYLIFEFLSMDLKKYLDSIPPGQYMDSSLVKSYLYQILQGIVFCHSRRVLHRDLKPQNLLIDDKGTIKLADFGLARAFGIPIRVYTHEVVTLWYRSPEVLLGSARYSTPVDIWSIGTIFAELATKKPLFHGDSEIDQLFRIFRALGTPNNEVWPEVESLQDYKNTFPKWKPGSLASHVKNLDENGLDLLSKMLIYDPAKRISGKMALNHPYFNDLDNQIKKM
T1 sequence (P14635 whole entry partner): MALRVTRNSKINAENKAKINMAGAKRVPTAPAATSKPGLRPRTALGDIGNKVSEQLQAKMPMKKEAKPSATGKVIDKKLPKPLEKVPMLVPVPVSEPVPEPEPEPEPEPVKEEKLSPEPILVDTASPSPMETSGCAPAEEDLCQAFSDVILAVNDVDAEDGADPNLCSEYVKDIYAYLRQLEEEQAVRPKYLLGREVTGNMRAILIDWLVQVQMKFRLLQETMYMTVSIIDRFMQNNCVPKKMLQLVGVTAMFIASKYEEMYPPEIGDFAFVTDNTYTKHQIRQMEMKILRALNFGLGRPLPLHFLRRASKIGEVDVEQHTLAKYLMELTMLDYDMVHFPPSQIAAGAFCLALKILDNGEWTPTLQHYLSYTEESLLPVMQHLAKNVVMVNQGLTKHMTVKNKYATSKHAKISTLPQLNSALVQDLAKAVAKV

Row | IC50 (cyclin B/CDK1 enzyme; [1]) | IC50 (Cyclin D1/CDK6) | melting point | IC50 (cyclin E/CDK2 enzyme; [3]) | IC50 (cyclin D1/cdk 4 enzyme; [4]) | IC50 (cyclin B/CDK1 enzyme; [5]) | IC50 (cyclin E/CDK2 enzyme; [7]) | IC50 (cyclin D1/cdk 4 enzyme; [8]) | SMILES | IC50 (BT474; [2]) | IC50 (LoVo; three days) | IC50 (MCF-7; three days) | IC50 (HCT-116; three days) | IC50 (BT474; [6]) | IC50 (LoVo; 3 days) | IC50 (SK-UT-1B) | IC50 (MCF-7; 3 days) | IC50 (SK-Br-3) | IC50 (HCT-116; 3 days)
1 | – | – | – | – | – | 34.8 µM | 6.2 µM | 11.2 µM | O=C1NC(=O)c2ccccc2C1=CNc1ccc(O)c2ncccc12 [Example 569, 4-[(8-Hydroxy-quinolin-5-ylamino)-methylene]-4H-isoquinoline-1,3-dione] | – | – | – | – | 14.1 µM | > 50 µM | 2.2 µM | 7.2 µM | 8.9 µM | 7.1 µM
2 | – | – | – | – | – | – | 12.5 µM | – | O=C1NC(=O)c2ccccc2/C1=C/NCc1ccc(O)c(O)c1 [Example 550, 4-[(3,4-Dihydroxy-benzylamino)-methylene]-4H-isoquinoline-1,3-dione] | – | – | – | – | 36.5 µM | 46.5 µM | 17.3 µM | 39.1 µM | 32.4 µM | 26.6 µM
3 | > 50 µM | 0.001 µM | 250 to 251 °C | > 50 µM | 0.002 µM | – | – | – | COc1cc(CN/C=C2\C(=O)NC(=O)c3ccc(-c4ccccc4)cc32)cc(O)c1OC [Example 86] | 3.2 µM | 3.7 µM | 5.1 µM | 4.5 µM | – | – | – | – | – | –
4 | – | – | – | – | – | > 50 µM | 2.5 µM | 17.9 µM | Nc1ccc(NC=C2C(=O)NC(=O)c3ccccc32)cc1 [Example 545, 4-[(4-Amino-phenylamino)-methylene]-4H-isoquinoline-1,3-dione] | – | – | – | – | > 50 µM | > 50 µM | 38.9 µM | > 50 µM | > 50 µM | 40.1 µM
5 | 9.7 µM | 0.001 µM | 252 to 253 °C | – | 0.004 µM | – | – | – | COc1ccc(CN/C=C2\C(=O)NC(=O)c3ccc(-n4cccc4)cc32)cc1O [Example 71] | 3.8 µM | 3 µM | 7.8 µM | 4.7 µM | – | – | – | – | – | –

Further lines, the molecule ahead of its results:

Row | SMILES | IC50 (cyclin B/CDK1 enzyme; [1]) | IC50 (Cyclin D1/CDK6) | melting point | IC50 (cyclin E/CDK2 enzyme; [3]) | IC50 (cyclin D1/cdk 4 enzyme; [4]) | IC50 (cyclin B/CDK1 enzyme; [5]) | IC50 (cyclin E/CDK2 enzyme; [7]) | IC50 (cyclin D1/cdk 4 enzyme; [8]) | IC50 (BT474; [2]) | IC50 (LoVo; three days) | IC50 (MCF-7; three days) | IC50 (HCT-116; three days) | IC50 (BT474; [6]) | IC50 (LoVo; 3 days) | IC50 (SK-UT-1B) | IC50 (MCF-7; 3 days) | IC50 (SK-Br-3) | IC50 (HCT-116; 3 days)
6 | O=C1NC(=O)c2ccc(-n3cccc3)cc2/C1=C/Nc1ccc(CN2CCCCC2)cc1 [Example 74] | > 50 µM | 0.02 µM | 207 to 208 °C | – | – | – | – | – | 3.3 µM | 2.4 µM | 2.1 µM | 2.7 µM | – | – | – | – | – | –
7 | COc1ccc(CN/C=C2\C(=O)NC(=O)c3ccc(I)cc32)cc1O [Example 80, (4Z)-6-Iodo-4-{[(3-hydroxy-4-methoxybenzyl)amino]methylene}isoquinoline-1,3(2H,4H)-dione] | 6 µM | 0.002 µM | – | 0.87 µM | 0.01 µM | – | – | – | 1.7 µM | 1.5 µM | 3.7 µM | 2 µM | – | – | – | – | – | –
8 | O=C1NC(=O)c2ccc(Cl)cc2/C1=C/Nc1ccc(CN2CCCCC2)cc1 [Example 55, (4Z)-6-Chloro-4-({[4-(piperidin-1-ylmethyl)phenyl]amino}methylene)isoquinoline-1,3(2H,4H)-dione] | > 50 µM | 0.12 µM | 225 to 226 °C | > 50 µM | 2.5 µM | – | – | – | 11 µM | 7.7 µM | 7 µM | 5.7 µM | – | – | – | – | – | –
9 | COc1ccc(CN/C=C2\C(=O)NC(=O)c3cccc(Br)c32)cc1O [Example 84, (4Z)-5-Bromo-4-{[(3-hydroxy-4-methoxybenzyl)amino]methylene}isoquinoline-1,3(2H,4H)-dione] | 8.1 µM | 0.07 µM | 204 to 206 °C | 3.1 µM | 0.94 µM | – | – | – | 2.1 µM | 4.6 µM | 6.7 µM | 3.1 µM | – | – | – | – | – | –
10 | COc1cc(CN/C=C2\C(=O)NC(=O)c3ccc(Br)cc32)cc(O)c1OC [compound 78] | > 50 µM | 0.002 µM | – | > 50 µM | 0.007 µM | – | – | – | 42 µM | > 50 µM | 32.5 µM | > 50 µM | – | – | – | – | – | –
11 | CN1CCN(c2ccc(N/C=C3\C(=O)NC(=O)c4ccc(I)cc43)cc2)CC1 [Example 81, (4Z)-6-Iodo-4-({[4-(4-methylpiperazin-1-yl)phenyl]amino}methylene)isoquinoline-1,3(2H,4H)-dione] | > 50 µM | 0.1 µM | – | > 50 µM | 0.48 µM | – | – | – | 2.8 µM | 5.1 µM | – | – | – | – | – | – | – | –
12 | O=C1NC(=O)c2ccc(I)cc2/C1=C/Nc1ccc(CN2CCCCC2)cc1 [Example 82, (4Z)-6-Iodo-4-({[4-(piperidin-1-ylmethyl)phenyl]amino}methylene)isoquinoline-1,3(2H,4H)-dione] | > 50 µM | 0.03 µM | 202 to 203 °C | 20.4 µM | 0.3 µM | – | – | – | 0.6 µM | 3.1 µM | 1 µM | 2.7 µM | – | – | – | – | – | –
